Data from ChEMBL document CHEMBL4376804, “Review of Transient Receptor Potential Canonical (TRPC5) Channel Modulators and Diseases” (J Med Chem, 2019).
Values belong to the compound of their own block, whether it stands above or below them.

Tests used:
[1] = target: T1, Short transient receptor potential channel 6 (Mus musculus, UniProt Q61143); assay: Inhibition of mouse TRPC6 expressed in HEK293 cells co-expressing M5 receptor assessed as reduction in carbachol-induced membrane potential by FMP-2 dye based assay; assay type: cell-based
T1 sequence (Q61143 whole entry): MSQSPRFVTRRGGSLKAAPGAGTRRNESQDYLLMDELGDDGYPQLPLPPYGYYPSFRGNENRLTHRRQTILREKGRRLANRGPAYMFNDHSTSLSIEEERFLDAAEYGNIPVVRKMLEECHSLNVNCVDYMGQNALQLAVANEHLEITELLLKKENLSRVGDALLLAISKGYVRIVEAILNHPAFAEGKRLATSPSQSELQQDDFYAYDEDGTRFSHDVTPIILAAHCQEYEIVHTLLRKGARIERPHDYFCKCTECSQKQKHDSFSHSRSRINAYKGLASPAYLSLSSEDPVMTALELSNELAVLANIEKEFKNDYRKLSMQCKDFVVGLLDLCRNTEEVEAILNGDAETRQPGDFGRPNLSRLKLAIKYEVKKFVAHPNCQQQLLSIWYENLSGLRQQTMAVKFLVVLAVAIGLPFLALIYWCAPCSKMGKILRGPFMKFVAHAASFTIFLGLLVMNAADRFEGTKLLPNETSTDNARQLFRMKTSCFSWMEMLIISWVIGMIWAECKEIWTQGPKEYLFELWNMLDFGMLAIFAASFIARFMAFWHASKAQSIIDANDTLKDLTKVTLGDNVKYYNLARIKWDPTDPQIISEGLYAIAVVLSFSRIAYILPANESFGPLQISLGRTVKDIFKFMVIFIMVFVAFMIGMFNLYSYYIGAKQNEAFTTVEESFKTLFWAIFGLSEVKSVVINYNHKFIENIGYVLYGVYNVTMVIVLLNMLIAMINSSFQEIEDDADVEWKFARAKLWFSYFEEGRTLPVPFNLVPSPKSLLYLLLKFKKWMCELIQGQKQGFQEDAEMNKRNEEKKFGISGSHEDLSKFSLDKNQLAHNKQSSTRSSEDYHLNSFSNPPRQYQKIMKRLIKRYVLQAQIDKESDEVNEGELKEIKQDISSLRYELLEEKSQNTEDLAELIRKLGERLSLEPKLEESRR

[2] = target: T2, Short transient receptor potential channel 3 (Homo sapiens, UniProt Q13507); assay: Inhibition of human TRPC3 expressed in HEK293 cells assessed as reduction in carbachol-induced membrane potential by FMP-2 dye based assay; assay type: cell-based
T2 sequence (Q13507 whole entry): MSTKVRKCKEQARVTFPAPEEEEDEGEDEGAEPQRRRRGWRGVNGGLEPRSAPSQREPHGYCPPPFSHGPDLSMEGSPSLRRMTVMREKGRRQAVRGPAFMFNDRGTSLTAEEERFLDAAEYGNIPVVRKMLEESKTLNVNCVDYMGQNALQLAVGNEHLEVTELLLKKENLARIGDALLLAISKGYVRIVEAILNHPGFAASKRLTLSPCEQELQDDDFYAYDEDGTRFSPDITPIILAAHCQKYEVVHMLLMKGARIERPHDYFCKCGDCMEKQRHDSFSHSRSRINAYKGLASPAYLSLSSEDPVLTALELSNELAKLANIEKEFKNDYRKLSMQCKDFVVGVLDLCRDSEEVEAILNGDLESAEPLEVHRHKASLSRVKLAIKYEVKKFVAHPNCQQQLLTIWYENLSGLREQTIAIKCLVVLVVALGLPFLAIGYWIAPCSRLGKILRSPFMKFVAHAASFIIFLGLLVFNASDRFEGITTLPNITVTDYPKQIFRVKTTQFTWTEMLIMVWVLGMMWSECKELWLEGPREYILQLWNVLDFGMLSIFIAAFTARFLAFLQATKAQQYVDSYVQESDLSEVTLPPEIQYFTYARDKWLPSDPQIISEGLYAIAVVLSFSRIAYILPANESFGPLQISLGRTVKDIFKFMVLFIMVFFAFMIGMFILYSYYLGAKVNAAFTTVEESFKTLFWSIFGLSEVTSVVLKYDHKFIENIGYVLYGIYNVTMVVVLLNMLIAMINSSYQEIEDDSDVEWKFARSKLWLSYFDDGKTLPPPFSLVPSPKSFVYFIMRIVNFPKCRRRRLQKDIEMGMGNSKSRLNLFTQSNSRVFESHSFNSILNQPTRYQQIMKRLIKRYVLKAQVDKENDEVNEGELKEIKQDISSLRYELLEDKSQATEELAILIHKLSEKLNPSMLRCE

[3] = Inhibition of human TRPC1/mouse TRPC4 beta expressed in HEK293 cells co-expressing M2 receptor assessed as reduction in […] membrane potential by FMP-2 dye based assay; assay type: cell-based
[4] = Drug concentration in C57BL/6 mouse serum at 10 mg/kg, ip after 2 hrs by UPLC method; assay type: ADME, organism-based; conditions: read-out: Drug uptake
[5] = Drug concentration in C57BL/6 mouse brain at 10 mg/kg, ip after 2 hrs by UPLC method; assay type: ADME, organism-based; conditions: read-out: Drug uptake
[6] = Drug concentration in C57BL/6 mouse cerebrospinal fluid at 10 mg/kg, ip after 2 hrs by UPLC method; assay type: ADME, organism-based; conditions: read-out: Drug uptake
TRPC4/TRPC1 = TRPC4/TRPC1 (Homo sapiens, UniProt P48995+Q9UBN4); assay: Antagonist activity at TRPC4/TRPC1 in human A498 cells assessed as reduction in englerin A-induced calcium entry preincubated for 30 mins followed by englerin A addition by fluorescence method; assay type: cell-based
TRPC6 = assay: Inhibition of TRPC6 expressed in HEK293 cells coexpressing M5 receptor assessed as reduction in TRPC6-mediated calcium influx by fluorescence method
[7] = target: T3, Short transient receptor potential channel 6 (Homo sapiens, UniProt Q9Y210); assay: Inhibition of human TRPC6 expressed in HEK293 cells assessed as reduction in OAG-induced calcium influx preincubated for 2 mins followed by OAG stimulation by fluo-4/AM dye based FLIPR assay; assay type: cell-based
T3 sequence (Q9Y210 whole entry): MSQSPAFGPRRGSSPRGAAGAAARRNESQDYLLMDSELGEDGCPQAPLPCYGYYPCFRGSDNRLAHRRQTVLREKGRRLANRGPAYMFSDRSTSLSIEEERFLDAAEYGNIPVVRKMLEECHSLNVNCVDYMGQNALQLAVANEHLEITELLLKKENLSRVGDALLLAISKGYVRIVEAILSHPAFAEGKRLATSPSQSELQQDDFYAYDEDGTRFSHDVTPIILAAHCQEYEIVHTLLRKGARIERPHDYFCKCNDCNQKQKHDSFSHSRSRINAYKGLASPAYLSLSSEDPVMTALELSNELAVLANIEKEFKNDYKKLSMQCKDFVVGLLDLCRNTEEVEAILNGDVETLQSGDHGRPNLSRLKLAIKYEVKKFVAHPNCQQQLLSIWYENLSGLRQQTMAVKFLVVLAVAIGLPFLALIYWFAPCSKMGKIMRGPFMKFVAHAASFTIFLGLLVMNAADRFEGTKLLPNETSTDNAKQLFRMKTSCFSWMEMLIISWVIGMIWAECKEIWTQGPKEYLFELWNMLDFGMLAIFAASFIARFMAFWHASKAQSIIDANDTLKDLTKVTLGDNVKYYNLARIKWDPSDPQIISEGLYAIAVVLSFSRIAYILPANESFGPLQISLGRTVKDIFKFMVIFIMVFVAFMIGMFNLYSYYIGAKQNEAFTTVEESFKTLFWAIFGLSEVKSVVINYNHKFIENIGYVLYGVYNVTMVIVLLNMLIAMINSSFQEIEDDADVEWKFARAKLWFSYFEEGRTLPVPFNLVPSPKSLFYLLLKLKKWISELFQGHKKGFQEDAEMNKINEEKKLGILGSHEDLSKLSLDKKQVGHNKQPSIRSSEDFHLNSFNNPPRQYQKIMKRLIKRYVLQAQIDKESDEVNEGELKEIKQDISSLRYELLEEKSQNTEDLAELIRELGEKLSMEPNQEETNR

[8] = target: T2, Short transient receptor potential channel 3; assay: Inhibition of YFP-tagged TRPC3 (unknown origin) expressed in HEK293 cells assessed as reduction carbhocol-induced receptor operated Calcium influx after 5 mins by fura-2-AM dye based assay; assay type: cell-based
ORAI1/STIM1 = ORAI1/STIM1 (Rattus norvegicus, UniProt P84903+Q5M848); assay: Inhibition of ORAI/STIM1 in thapsigargin treated rat RBL2H3 cells assessed as reduction in store-operated calcium entry after 5 mins by fura-2-AM dye based assay; assay type: cell-based
[9] = Selectivity ratio of ORAI/STIM1 in thapsigargin treated rat RBL2H3 cells to YFP-tagged TRPC3 (unknown origin) expressed in HEK293 cells; assay type: cell-based
[10] = target: T4, Short transient receptor potential channel 4 (Mus musculus, UniProt Q9QUQ5); assay: Inhibition of mouse TRPC4 beta expressed in HEK293 cells co-expressing mu-opioid receptor assessed as reduction in DAMGO-induced intracellular calcium level in presence of mu-opioid receptor agonist DAMGO by Fluo-4AM dye based fluorescence assay; assay type: cell-based
T4 sequence (Q9QUQ5 whole entry): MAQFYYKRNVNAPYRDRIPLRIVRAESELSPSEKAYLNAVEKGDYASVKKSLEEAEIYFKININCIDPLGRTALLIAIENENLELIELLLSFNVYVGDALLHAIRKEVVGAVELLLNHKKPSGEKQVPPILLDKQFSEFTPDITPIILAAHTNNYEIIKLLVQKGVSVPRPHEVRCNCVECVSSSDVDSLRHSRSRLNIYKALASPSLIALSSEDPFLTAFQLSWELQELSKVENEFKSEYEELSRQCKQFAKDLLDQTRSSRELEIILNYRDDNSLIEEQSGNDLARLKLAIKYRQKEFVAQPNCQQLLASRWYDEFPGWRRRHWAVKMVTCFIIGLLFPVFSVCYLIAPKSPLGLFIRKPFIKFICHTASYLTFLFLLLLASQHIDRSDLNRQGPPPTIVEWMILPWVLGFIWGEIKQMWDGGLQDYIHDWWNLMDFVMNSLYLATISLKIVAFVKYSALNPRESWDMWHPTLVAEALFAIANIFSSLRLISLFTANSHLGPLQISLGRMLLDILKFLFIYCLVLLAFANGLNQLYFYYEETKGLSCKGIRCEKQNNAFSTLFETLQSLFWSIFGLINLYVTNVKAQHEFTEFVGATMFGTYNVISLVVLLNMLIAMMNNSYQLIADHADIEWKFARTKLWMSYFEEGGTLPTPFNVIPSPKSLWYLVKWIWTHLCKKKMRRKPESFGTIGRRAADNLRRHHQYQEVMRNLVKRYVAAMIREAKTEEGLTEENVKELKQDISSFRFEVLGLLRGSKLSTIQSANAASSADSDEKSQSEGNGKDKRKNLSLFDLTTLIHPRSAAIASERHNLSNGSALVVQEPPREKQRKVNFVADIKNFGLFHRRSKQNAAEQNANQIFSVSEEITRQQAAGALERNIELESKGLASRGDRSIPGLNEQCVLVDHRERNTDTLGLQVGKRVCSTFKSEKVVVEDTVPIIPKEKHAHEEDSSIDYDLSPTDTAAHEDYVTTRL

[11] = target: T1, Short transient receptor potential channel 6; assay: Inhibition of HA-tagged mouse TRPC6 expressed in HEK293 cells assessed as reduction in acetylcholine-induced membrane potential by FLIPR membrane potential dye based assay; assay type: cell-based
Mus musculus = species: Mus musculus; assay: Selectivity ratio of mouse TRPC4 beta expressed in HEK293 cells co-expressing mu-opioid receptor to IC50 for mouse TRPC6 expressed in HEK293 cells; assay type: cell-based
Acetylcholinesterase = Acetylcholinesterase (Homo sapiens, UniProt P22303); assay: Inhibition of human recombinant acetylcholinesterase expressed in HEK-293 cells using AMTch as substrate after 30 mins by spectrophotometric method
Acetylcholinesterase, sequence (P22303 whole entry): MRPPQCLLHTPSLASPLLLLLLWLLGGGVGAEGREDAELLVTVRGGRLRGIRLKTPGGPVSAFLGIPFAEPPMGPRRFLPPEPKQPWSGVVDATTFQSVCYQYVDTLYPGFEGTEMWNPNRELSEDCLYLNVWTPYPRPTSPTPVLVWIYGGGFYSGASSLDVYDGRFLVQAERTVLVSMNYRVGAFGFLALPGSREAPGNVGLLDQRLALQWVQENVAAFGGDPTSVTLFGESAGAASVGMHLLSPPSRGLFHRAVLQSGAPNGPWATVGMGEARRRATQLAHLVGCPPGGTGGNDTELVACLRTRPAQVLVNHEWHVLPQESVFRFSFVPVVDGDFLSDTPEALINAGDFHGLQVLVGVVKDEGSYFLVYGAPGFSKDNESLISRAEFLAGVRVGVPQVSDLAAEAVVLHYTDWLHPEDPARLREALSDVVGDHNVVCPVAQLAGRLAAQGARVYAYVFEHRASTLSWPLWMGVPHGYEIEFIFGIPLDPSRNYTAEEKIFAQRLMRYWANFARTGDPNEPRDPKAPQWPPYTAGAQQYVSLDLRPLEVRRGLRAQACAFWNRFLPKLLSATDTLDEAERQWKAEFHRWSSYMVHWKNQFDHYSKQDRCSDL

TRPC4/TRPC1, sequence (Q9UBN4 whole entry): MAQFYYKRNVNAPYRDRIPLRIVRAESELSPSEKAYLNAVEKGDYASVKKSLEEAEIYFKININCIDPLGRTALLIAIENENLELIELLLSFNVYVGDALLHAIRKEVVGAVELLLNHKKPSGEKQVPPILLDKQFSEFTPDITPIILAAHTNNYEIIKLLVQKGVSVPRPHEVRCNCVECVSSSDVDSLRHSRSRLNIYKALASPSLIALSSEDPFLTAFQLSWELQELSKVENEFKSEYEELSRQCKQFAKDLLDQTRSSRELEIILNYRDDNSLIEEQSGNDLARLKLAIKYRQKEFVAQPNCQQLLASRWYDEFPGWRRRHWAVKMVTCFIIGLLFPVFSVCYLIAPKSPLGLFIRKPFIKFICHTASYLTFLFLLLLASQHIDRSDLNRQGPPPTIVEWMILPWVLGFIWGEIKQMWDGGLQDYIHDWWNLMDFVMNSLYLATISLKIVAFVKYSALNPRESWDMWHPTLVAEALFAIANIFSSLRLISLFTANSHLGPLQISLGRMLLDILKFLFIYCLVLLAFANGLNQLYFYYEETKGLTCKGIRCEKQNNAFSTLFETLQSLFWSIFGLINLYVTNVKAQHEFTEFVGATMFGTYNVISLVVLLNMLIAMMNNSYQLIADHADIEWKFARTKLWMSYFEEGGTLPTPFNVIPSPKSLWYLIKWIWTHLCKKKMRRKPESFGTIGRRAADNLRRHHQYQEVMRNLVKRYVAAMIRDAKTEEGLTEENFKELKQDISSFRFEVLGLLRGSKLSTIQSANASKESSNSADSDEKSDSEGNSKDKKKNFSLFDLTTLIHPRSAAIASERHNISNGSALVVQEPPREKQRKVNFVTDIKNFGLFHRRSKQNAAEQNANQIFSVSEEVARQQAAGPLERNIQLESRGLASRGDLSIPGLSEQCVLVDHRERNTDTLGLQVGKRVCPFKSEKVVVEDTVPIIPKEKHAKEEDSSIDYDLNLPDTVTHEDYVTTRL
TRPC4/TRPC1, sequence (P48995 whole entry): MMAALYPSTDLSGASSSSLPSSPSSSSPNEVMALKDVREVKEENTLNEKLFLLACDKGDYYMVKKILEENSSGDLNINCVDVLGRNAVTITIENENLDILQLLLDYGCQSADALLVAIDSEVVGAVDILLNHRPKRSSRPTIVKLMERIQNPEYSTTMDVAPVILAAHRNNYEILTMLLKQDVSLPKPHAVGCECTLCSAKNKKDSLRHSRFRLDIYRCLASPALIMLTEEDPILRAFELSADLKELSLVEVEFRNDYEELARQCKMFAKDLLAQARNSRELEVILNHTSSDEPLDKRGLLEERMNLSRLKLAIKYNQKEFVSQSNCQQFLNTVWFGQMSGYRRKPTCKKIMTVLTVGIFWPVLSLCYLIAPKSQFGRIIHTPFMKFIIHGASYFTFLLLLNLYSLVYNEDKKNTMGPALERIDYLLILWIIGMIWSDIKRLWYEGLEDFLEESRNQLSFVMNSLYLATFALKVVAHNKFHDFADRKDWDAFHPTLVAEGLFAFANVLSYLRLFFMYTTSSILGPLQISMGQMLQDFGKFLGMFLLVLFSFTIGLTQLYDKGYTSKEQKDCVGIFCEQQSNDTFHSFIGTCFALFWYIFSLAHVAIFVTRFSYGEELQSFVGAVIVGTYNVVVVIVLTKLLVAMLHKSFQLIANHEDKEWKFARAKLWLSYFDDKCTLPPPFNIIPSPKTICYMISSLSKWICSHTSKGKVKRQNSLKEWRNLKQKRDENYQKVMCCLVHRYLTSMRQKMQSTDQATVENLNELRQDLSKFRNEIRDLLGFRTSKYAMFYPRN
ORAI1/STIM1, sequence (P84903 whole entry): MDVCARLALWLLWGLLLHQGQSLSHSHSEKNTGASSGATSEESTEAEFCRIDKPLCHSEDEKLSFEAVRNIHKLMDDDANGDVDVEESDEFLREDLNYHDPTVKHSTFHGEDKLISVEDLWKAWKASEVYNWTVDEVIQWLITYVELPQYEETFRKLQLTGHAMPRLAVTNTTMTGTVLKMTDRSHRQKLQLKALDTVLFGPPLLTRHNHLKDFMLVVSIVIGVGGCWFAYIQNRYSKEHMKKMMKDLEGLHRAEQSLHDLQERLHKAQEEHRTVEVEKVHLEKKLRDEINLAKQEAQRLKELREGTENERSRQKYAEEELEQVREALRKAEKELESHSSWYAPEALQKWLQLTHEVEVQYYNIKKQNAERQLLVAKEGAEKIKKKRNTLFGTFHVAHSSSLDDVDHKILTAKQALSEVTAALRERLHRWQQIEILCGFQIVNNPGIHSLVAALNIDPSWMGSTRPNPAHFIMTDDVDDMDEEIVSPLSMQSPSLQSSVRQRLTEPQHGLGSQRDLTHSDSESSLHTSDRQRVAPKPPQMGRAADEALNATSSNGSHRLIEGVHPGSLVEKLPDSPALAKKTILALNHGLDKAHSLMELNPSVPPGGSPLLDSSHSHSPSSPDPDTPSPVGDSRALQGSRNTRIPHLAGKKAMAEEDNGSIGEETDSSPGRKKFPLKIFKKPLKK
ORAI1/STIM1, sequence (Q5M848 whole entry): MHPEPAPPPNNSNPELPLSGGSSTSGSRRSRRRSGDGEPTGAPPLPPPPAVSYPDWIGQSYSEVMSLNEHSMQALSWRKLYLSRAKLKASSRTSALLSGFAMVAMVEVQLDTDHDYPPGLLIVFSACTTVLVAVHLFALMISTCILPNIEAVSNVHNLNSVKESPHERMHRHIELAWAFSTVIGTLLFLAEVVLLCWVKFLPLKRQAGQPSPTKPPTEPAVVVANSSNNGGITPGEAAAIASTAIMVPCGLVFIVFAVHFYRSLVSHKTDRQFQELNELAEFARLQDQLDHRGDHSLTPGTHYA

Structure (SMILES): CCCCNc1nc2ccccc2[nH]1
IC50 [1]: 59.6 µM | IC50 [2]: 48.6 µM | IC50 [3]: 8.3 µM | concentration at 2 h [4]: 2260 ng/mL | concentration at 2 h [5]: 1100 ng/g | concentration at 2 h [6]: 335 ng/mL

Structure (SMILES): CC(C)[C@]12C[C@@H](OCCO)[C@](C)(O1)[C@@H]1CC[C@@H](C)[C@H]1[C@@H]2OC(=O)/C=C/c1ccccc1
IC50 (TRPC4/TRPC1): 0.062 µM

Structure (SMILES): C=C[C@@](C)(CC[C@H]1C(=C)C[C@H](OC(N)=O)[C@H]2C(C)(C)CCC[C@]12C)OC(C)=O
IC50 [7]: 0.25 µM

Structure (SMILES): Cc1cc(N2CCCCC2)nc2ccccc12
IC50 [10]: 0.96 µM | IC50 [11]: 17.9 µM | Ratio IC50 (Mus musculus): 19 | IC50 (Acetylcholinesterase): 0.84 µM

More lines, main results first:

IC50 (TRPC6): 8.4 µM
Structure (SMILES): Cc1nn2c(O)cc(C3CCN(C(=O)OC(C)(C)C)CC3)nc2c1-c1ccc(F)cc1

IC50 [8]: 18.5 µM | IC50 (ORAI1/STIM1): 0.49 µM
Structure (SMILES): O=C(Nc1ccc(-n2nc(C(F)(F)F)cc2C(F)(F)F)cc1)c1ccncc1F
Ratio IC50 [9]: 37

IC50 [7]: 0.17 µM
Structure (SMILES): C=C[C@](C)(O)CC[C@H]1C(=C)C[C@H](OC(N)=O)[C@H]2C(C)(C)CCC[C@]12C
